Results: PMC7824259, “Novel Cecropin-4 Derived Peptides against Methicillin-Resistant Staphylococcus aureus” (Antibiotics, 2021)
In brackets after ≈: the same amount, converted by molar mass. Read-outs that look alike come from different tables or passages of the source. No end group written: not given here.

Key:
G. mellonella larvae = assay: Galleria mellonella toxicity; format: in vivo; settings: uninfected larvae, doses 4, 8, 16, 32 mg/kg, even at 32 mg/kg, until 120 h, n = 16/group
Method: To study the protective effects of the peptide C18 in an in vivo model, we used an established wax moth model system. G. mellonella larvae (Vanderhorst Wholesale, St. Mary’s, OH, USA) were distributed as a different group with randomly selected larvae (n = 16/group). The S. aureus MW2 bacteria were grown to exponential phase from overnight culture. Cells were then washed with PBS three times and finally suspended in PBS with an OD600 = 0.3. Experimental groups consisted of untouched (no injection), PBS (vehicle), bacterial infection group, and treatment group. Vancomycin was used as a positive control. […] All injections were performed using a Hamilton syringe on the last left proleg. The larvae were incubated at 37 °C for 5 days, with live and dead counts being performed every 24 h.

human red blood cells = format: cell-based; settings: for HL50 (50% of human red blood cells were lysed): 1 h
Method: The ability of the peptide to cause hemoglobin leakage was evaluated, as described in a previous study. Human erythrocytes were purchased from Rockland Immunochemicals (Limerick, PA, USA), washed 3 × times in equal volume PBS, and resuspended as 4% hRBCs solution. One hundred microliters of the blood cells were added to 100 µl of the peptide solution in PBS serially diluted from 4–128 µg/mL in a 96-well microtiter plate. PBS and 1% Triton-X 100 were used as […] controls. Upon adding the blood cells, the plate was incubated at 37 °C for 1 h and then centrifuged at 500× g for 5 min. One hundred microliters of the supernatant were transferred to a fresh 96-well plate, and absorbance was read at 540 nm. The hemolysis percentage was calculated considering 100% hemolysis caused by 1% Triton X-100 and 0% on PBS. The values were represented as the mean of duplicates. The following formula calculated the percentage of hemolysis: (A540 nm in the peptide solution − A540 nm in PBS)/(A540 nm of 1% Triton X-100 treated sample − A540 nm in PBS) × 100. Zero and 100% percentage hemolysis were determined in PBS and […], respectively.

S. aureus MW2 [1] = assay: Checkerboard synergy of C18 with clinical antibacterial agents; format: cell-based, Staphylococcus aureus; settings: for FICI (fractional inhibition concentration index): named agent combined with C18, S. aureus MW2, 8 × 8 checkerboard, synergy FICI ≤ 0.5, additive 0.5 < FICI ≤ 4, antagonism > 4; for Kind of interaction with C18: named agent combined with C18, S. aureus MW2, checkerboard
Method: The checkerboard assay was used to evaluate the synergy of C18 with conventional antibacterial agents against S. aureus MW2 [40]. Briefly, an 8 × 8 matrix was formed in a 96-well microtiter petri dish with two-fold serial dilutions of C18 combined with each conventional antibacterial agent. The fractional inhibition concentration index (FICI) was calculated: FICI = MIC of compound A in combination / MIC of compound A alone +MIC of compound B in combination / MIC of compound B alone.

S. aureus MW2 [2] = assay: microbe, parasite or virus in culture; format: cell-based, Staphylococcus aureus; settings: for MIC: Staphylococcus aureus, MW2, 18 h
Method: Broth microdilution assays determined the MICs of peptides following the method described by the Clinical and Laboratory Standards Institute. In short, for each peptide, serial dilutions (50 µL) in duplicates were made in Mueller-Hinton broth (BD, Franklin Lakes, NJ, USA) in a 96-well plate (Cat No. 3595, Corning, NY, USA). […] After bacterial addition, the plates were incubated at 37°C for 18 h. […] To investigate each peptide’s activity in high salt concentrations or human serum, the MIC was again tested as described in the previous paragraph of the experimental method. […] All MIC assays were conducted in duplicate, with each experiment replicated twice.

[3] = Rhodamine-BF dye leakage from liposomes; settings: liposomes DOPC: Cholesterol, 55:40; 1 h incubation
Description: We also performed dye leakage experiments to further understand the membrane interactive nature of the peptides. A dye, rhodamine-BF, entrapped in liposomes (DOPC: Cholesterol, 55:40) was subjected to the action of the peptides.

S. aureus MW2 [4] = assay: Propidium iodide membrane permeability; format: cell-based, Staphylococcus aureus; settings: 32 µg/mL, 1 h incubation
Method: Fluorescence-based bacterial permeation assay was used to follow the membrane-oriented interactions of the designed peptides. The propidium iodide probe is generally used to establish a pore formation mechanism of AMPs. In short, S. aureus MW2 was inoculated in MHB and grown overnight at 37 °C overnight with shaking at 220 rpm. A fresh inoculation was done the next day in the same media to achieve exponential growth. The culture was then washed with PBS 3 times and adjusted to OD600 ~0.3 in PBS. We added 48 μL of this culture to a 96-well black clear-bottom plate (Cat no. 3904, Corning, NY, USA) containing 50 μL of serially diluted 2 × peptide concentrations, and 2 μL of propidium iodide (20 μM) was added per well. Fluorescence was measured by SpectraMax M2 (Molecular Devices, CA, USA) with an excitation wavelength of 584 nm and an emission wavelength of 620 nm after 1 h at room temperature.

HepG2 cells = assay: Mammalian cell cytotoxicity (WST-1); format: cell-based, human; settings: 64 µg/mL, HepG2, 24 h
Method: HepG2 cells were used to assess the mammalian cell cytotoxicity of AMPs, as described previously. Cells were grown in Dulbecco’s Modified Eagle Medium (DMEM) (Gibco, MD, USA) supplemented with 10% fetal bovine serum (FBS) (Gibco, MD, USA) and 1% penicillin/streptomycin (Gibco, MD, USA) and maintained at 37°C in 5% CO2. Cells were harvested and resuspended in a fresh medium, and 100 µL were distributed in a 96-well plate at […]. AMPs were serially diluted in serum and antibiotic-free DMEM added to the monolayer of the cells, and the plates were incubated at 37 °C in 5% CO2 for 24 h. At 4 h, before the end of the incubation period, 10 µL of 2-(4-iodophenyl)-3-(4-nitrophenyl)-5-(2, 4-disulfophenyl)-2H-tetrazolium (WST-1) solution (Roche, Mannheim, Germany) was added to each well. WST-1 reduction was monitored at 450 nm using a Vmax microplate reader. Assays were performed in triplicate, and the percentage of cell survival was calculated.

psGABO-SPE plasmid DNA = assay: Plasmid band shift assay (DNA binding)
Method: The methods in the reference were used to detect the ability of C18 binding DNA [43]. Briefly, the reaction of 20 μL containing 100 ng psGABO-SPE plasmid DNA (Addgene, MA, USA), polymyxin B, and C18 (1.95–500 μM) or ddH2O (control) was incubated in TE (Tris-EDTA) buffer (Invitrogen, CA, USA) at 37 °C for 2 h. The products were detected in 1% agarose gel electrophoresis, and plasmid migration was observed on a G: BOX Chemi XT4 gel doc system.

Molecule | HL50 (50% of human red blood cells were lysed) (human red blood cells) [µg/mL] | FICI (fractional inhibition concentration index) (S. aureus MW2 [1]) | Kind of interaction with C18 (S. aureus MW2 [1]) | also measured
LWKIGKKIWRVLWNWR [C18] | 16 | – | – | Larvae survival (toxicity) (G. mellonella larvae): more than 70%; HL50 relative to MIC against MRSA MW2 (human red blood cells): 4 times
CNC(C)C1CCC(N)C(OC2C(N)CC(N)C(OC3OCC(C)(O)C(NC)C3O)C2O)O1 (stereo not shown) [gentamicin] | – | 1.25 | additive effect | –
CCCCCCCCCC(=O)N[C@@H](Cc1c[nH]c2ccccc12)C(=O)N[C@H](CC(N)=O)C(=O)N[C@@H](CC(=O)O)C(=O)N[C@@H]1C(=O)NCC(=O)N[C@@H](CCCN)C(=O)N[C@@H](CC(=O)O)C(=O)N[C@H](C)C(=O)N[C@@H](CC(=O)O)C(=O)NCC(=O)N[C@H](CO)C(=O)N[C@@H]([C@H](C)CC(=O)O)C(=O)N[C@@H](CC(=O)c2ccccc2N)C(=O)O[C@@H]1C [daptomycin] | – | – | synergistic effect | –
CN[C@H](CC(C)C)C(=O)N[C@H]1C(=O)N[C@@H](CC(N)=O)C(=O)N[C@H]2C(=O)N[C@H]3C(=O)N[C@H](C(=O)N[C@H](C(=O)O)c4cc(O)cc(O)c4-c4cc3ccc4O)[C@H](O)c3ccc(c(Cl)c3)Oc3cc2cc(c3O[C@@H]2O[C@H](CO)[C@@H](O)[C@H](O)[C@H]2O[C@H]2C[C@](C)(N)[C@H](O)[C@H](C)O2)Oc2ccc(cc2Cl)[C@H]1O [vancomycin] | – | 0.625 | additive effect | MIC against S. aureus MW2, Serum (5%) (S. aureus MW2 [2]; MHB with human serum (5%), 37 °C, 18 h, duplicate, replicated twice): not changed; MIC (S. aureus MW2 [2]; read-out: MIC against S. aureus MW2, CaCl2 (2 mM)): 2 µg/mL (≈ 1.38 µM); MIC (S. aureus MW2 [2]; read-out: MIC against S. aureus MW2, MHB): 2 µg/mL (≈ 1.38 µM); MIC (S. aureus MW2 [2]; read-out: MIC against S. aureus MW2, NaCl (150 mM)): 2 µg/mL (≈ 1.38 µM); Rhodamine-BF fluorescence (dye leakage) [3]: lowest; Propidium iodide fluorescence (S. aureus MW2 [4]): unable to induce any fluorescence
LWKIWWKIWRVWKNWR [C22] | 4 | – | – | Reduction of live-cell contents (HepG2 cells): 20%
polymyxin B | – | – | – | Concentration of significant DNA binding (psGABO-SPE plasmid DNA; 100 ng plasmid, TE buffer, 37 °C, 2 h, 1% agarose gel, 1.95–500 μM tested): 31.2 µM; Concentration of significant DNA binding (psGABO-SPE plasmid DNA; same concentration in brackets): 37.1 µg/mL
LWKIWKKIWRVGWNWR [C13] | 48 | – | – | –
LWKIWKKIWRVWKNWR [C16] | 16 | – | – | –
Cc1onc(-c2ccccc2)c1C(=O)N[C@@H]1C(=O)N2[C@@H]1SC(C)(C)[C@@H]2C(=O)O [oxacillin] | – | 0.75 | additive effect | –
